# Experimental data: patent publication US20240276986A1, “Compositions With Ethofumesate And A Safener” (BAYER AKTIENGESELLSCHAFT, priority 2021, published 2024)
# Like-named read-outs stand apart in the source and are kept apart here.
# How the values were obtained:
# [1] = test system: cereral crops such as wheat or barley; test: Own experiments, safening effect of mefenpyr-diethyl used with flufenacet; assay type: in vivo; settings: used with flufenacet (WSSA group 15); cereal crops such as wheat or barley
# [2] = test system: soft winter wheat (TRZAW); test: Field trial, crop injury in soft winter wheat after early post-emergence spray; assay type: in vivo, Triticum aestivum; settings: post-emergence BBCH 11, 140 L/ha, ethofumesate 250 g/ha, combination 250 + 100 g/ha, visual rating vs untreated control
# Description: (§1) In field trials the interaction of (i) ethofumesate and (ii) the safener mefenpyr-diethyl concerning cereal crop injury was investigated.
# (§2) Plots of different verities of wheat and barley crops in the field were sprayed with an application volume of 140 L/ha with a handheld spray boom.
# (§3) Application of the application spray compostions was carried out early in each case post-emergence at BBCH growth stage 11 (first leaf unfolded) of the respective wheat or barley crops.
# The four different soft winter wheat (TRZAW) varieties tested were ARTHUR NICK, ELIXER, PISTOLO and RUBISKO.
# (§4) The maximum crop damage and the final crop damage were in each case visually rated on a percentage scale in relation to the untreated control (100%=all plants dead, complete crop kill; 50%=green plant biomass reduced by 50%, and 0%=like control plot, no crop injury).
# (§5) The main symptoms of crop damage observed were thinning and stunting.
# winter barley (HORVW) = test: Field trial, crop injury in winter barley after early post-emergence spray; assay type: in vivo, Hordeum vulgare; settings: post-emergence BBCH 11, 140 L/ha, ethofumesate 250 g/ha, combination 250 + 100 g/ha, visual rating vs untreated control
# Description: as §1, §2, §3
# The three different winter barley (HORVW) varieties tested were CALIFORNIA, CIERZO and KWS ORBIT.
# as §4, §5
# barley and wheat = settings: greenhouse studies; cited from earlier work
# [3] = test system: annual bluegrass (Poa annua L.); settings: pre-emergence or early post-emergence at 0.8 to 4.5 kg/ha; Italian ryegrass seed fields; cited from earlier work
# [4] = test system: volunteer wheat (Triticum aestivum L.); settings: cited from earlier work
smiles,measurement,setting,value
"CCOC(=O)C1=NN(c2ccc(Cl)cc2Cl)C(C)(C(=O)OCC)C1 (stereo not shown) [mefenpyr-diethyl, ethyl 1-(2,4-dichlorophenyl)-5-(ethoxycarbonyl)-5-methyl-2-pyrazoline-3-carboxylate]",safening effect,[1],does not have a safening effect
"CCOC1Oc2ccc(OS(C)(=O)=O)cc2C1(C)C (stereo not shown) [Ethofumesate, 2-ethoxy-2,3-dihydro-3,3-dimethylbenzofuran-5-yl methanesulfonate]",Final crop damage in %,[2]; Variety ARTUR NICK,11.6%
same,Maximum crop damage in %,[2]; Variety ARTUR NICK,16%
same,Final crop damage in %,[2]; Variety ELIXER,28.3%
same,Maximum crop damage in %,[2]; Variety ELIXER,63%
same,Final crop damage in %,[2]; Variety PISTOLO,14.0%
same,Maximum crop damage in %,[2]; Variety PISTOLO,24%
same,Final crop damage in %,[2]; Variety RUBISKO,13.7%
same,Maximum crop damage in %,[2]; Variety RUBISKO,30%
same,Final crop damage in %,winter barley (HORVW); Variety CALIFORNIA,12.5%
same,Maximum crop damage in %,winter barley (HORVW); Variety CALIFORNIA,25%
same,Final crop damage in %,winter barley (HORVW); Variety CIERZO,19.7%
same,Maximum crop damage in %,winter barley (HORVW); Variety CIERZO,28%
same,Final crop damage in %,winter barley (HORVW); Variety KWS ORBIT,25.0%
same,Maximum crop damage in %,winter barley (HORVW); Variety KWS ORBIT,45%
same,susceptibility of barley and wheat to soil residues of ethofumesate relative to corn,barley and wheat,about 10 times
same,control of annual bluegrass,[3],eliminated annual bluegrass
same,control of volunteer wheat,"[4]; 1.7 kg/ha or more, wheat in the one- to three-leaf stage",eliminated the wheat
same,control of volunteer wheat,[4]; applied pre-emergence soon after planting or at the end of November to wheat in the four-leaf to four-tiller stage,not eliminated
